For the assay, the target named is T1, human serum albumin (HSA) (Homo sapiens, UniProt P02768).
T1 construct: gene ALB
Put plainly: fluorescence turn-on titration with HSA (one-site fit), Job's plot […], displacement assay. It is filed as binding.

T1 sequence (P02768 25-609): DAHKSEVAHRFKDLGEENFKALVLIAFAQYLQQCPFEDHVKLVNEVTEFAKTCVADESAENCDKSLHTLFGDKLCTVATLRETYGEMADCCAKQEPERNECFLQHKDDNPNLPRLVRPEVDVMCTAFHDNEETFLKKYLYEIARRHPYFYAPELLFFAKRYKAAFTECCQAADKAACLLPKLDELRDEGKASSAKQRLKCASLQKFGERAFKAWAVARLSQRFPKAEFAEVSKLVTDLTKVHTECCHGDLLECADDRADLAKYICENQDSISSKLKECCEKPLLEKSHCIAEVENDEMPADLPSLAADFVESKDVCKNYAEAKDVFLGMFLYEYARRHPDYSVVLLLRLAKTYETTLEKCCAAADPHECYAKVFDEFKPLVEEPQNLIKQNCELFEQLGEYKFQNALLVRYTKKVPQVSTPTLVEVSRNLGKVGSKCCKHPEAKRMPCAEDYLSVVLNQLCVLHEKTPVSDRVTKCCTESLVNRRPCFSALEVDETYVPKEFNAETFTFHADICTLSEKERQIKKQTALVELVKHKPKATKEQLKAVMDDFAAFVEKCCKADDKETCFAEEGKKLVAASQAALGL

Turning to `CN(C)c1ccc(/C=C/C=C/C=C(\C#N)C(=O)c2cccc(Cl)c2)s1` [compound 5, (2E,4E,6E)-2-(3-chlorobenzoyl)-7-(5-(dimethylamino)thiophen-2-yl)hepta-2,4,6-trienenitrile], binding was put at a Kd of 15.4 ± 3.3 µM.

The values are drawn from PMC7070906, “A Near-infrared Turn-on Fluorescent Sensor for Sensitive and Specific Detection of Albumin from Urine Samples” (Sensors (Basel, Switzerland), 2020).
